The text below walks through data of ChEMBL document CHEMBL5291721, “A preclinical secondary pharmacology resource illuminates target-adverse drug reaction associations of marketed drugs” (Nat Commun, 2023).

A value given as a limit tells only on which side of the number the result lay.

Targets include Cannabinoid receptor 1 (Homo sapiens, UniProt P21554); Mu-type opioid receptor (Homo sapiens, UniProt P35372); Melanocortin receptor 4 (Homo sapiens, UniProt P32245).
Experiment [1] addresses Beta-2 adrenergic receptor (Homo sapiens, UniProt P07550). The experiment is classed as functional, cell-based.
The target of experiment [2] is T1, Androgen receptor (Rattus norvegicus, UniProt P15207).
T1 sequence (P15207 whole entry): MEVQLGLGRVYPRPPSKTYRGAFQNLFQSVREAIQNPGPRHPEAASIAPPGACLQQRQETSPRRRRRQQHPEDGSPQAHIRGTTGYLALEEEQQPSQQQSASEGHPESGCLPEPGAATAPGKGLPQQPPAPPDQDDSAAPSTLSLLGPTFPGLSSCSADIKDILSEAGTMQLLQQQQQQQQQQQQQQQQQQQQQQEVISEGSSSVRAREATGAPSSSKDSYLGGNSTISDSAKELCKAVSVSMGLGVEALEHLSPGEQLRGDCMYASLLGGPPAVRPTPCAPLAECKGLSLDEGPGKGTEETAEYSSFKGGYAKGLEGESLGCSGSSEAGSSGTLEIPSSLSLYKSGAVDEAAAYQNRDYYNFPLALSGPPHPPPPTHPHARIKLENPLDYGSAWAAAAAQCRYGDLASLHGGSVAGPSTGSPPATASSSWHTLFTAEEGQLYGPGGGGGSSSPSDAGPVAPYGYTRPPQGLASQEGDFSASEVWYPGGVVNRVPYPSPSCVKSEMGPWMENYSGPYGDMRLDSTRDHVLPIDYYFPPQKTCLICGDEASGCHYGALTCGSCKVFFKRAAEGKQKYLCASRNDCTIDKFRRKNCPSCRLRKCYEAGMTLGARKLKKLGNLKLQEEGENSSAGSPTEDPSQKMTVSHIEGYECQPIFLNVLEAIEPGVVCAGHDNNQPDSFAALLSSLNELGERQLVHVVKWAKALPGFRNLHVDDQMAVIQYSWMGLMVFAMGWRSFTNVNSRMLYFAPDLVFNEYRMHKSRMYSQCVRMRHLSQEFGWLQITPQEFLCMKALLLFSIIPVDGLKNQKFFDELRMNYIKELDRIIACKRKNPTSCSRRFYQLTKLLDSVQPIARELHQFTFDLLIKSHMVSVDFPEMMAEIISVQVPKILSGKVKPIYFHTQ
The class given is functional.

Experiment [3] addresses T1, Androgen receptor. The experiment is classed as functional. The source holds these as a separate data set.
For experiment [4], the target named is T2, Alpha-1A adrenergic receptor (Homo sapiens, UniProt P35348).
T2 sequence (P35348 whole entry): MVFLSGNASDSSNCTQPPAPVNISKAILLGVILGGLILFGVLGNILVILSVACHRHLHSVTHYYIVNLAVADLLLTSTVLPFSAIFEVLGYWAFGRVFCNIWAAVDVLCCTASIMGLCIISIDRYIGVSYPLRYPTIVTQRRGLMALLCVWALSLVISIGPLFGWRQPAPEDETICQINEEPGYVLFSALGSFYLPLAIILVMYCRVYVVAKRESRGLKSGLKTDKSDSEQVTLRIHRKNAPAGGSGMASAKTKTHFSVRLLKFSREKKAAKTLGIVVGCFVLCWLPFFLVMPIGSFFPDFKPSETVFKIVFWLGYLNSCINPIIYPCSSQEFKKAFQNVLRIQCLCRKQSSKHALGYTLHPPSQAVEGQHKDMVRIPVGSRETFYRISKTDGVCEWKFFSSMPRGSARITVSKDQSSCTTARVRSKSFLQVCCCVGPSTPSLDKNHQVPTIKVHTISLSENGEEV

The target of experiment [5] is T1, Androgen receptor.
Experiment [6] concerns the target T3, Gamma-aminobutyric acid receptor subunit alpha-1/alpha-2/beta-2/gamma-2 (Homo sapiens, UniProt P14867+P18507+P47869+P47870). The experiment is classed as functional, cell-based.
Experiment [7] has as its target T3, Gamma-aminobutyric acid receptor subunit alpha-1/alpha-2/beta-2/gamma-2. The experiment is classed as functional, cell-based. This is another data set of the same source.
In experiment [8] the target is 5-hydroxytryptamine receptor 2A (Homo sapiens, UniProt P28223).
Sequence of 5-hydroxytryptamine receptor 2A (P28223 whole entry): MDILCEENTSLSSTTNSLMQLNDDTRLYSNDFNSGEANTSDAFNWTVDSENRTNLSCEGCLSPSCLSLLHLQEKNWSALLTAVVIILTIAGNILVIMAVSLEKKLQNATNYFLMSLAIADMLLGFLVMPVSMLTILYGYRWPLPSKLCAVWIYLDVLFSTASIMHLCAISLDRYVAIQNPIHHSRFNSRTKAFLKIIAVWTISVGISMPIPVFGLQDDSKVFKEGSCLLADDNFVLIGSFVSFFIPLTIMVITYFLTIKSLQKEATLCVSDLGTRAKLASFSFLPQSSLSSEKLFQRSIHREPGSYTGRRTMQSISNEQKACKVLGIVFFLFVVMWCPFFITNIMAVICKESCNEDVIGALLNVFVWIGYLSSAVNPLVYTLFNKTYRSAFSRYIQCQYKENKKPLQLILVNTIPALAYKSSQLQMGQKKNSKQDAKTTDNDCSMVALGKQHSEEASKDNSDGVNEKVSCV
Experiment [9] has as its target Beta-3 adrenergic receptor (Homo sapiens, UniProt P13945).
The target in experiment [10] is T4, Alpha-2A adrenergic receptor (Homo sapiens, UniProt P08913).
T4 sequence (P08913 whole entry): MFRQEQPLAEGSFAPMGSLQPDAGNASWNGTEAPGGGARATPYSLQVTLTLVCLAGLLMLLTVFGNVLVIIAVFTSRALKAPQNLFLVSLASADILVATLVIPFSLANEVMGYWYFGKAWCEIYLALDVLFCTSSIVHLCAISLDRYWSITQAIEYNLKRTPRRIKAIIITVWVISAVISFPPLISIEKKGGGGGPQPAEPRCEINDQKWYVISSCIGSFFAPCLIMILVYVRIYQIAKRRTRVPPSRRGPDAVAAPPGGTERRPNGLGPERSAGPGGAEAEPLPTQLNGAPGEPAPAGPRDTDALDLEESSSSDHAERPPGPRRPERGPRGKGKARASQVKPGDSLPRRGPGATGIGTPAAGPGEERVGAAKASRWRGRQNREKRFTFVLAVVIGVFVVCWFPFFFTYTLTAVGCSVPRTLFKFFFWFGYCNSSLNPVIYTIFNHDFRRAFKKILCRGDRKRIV
Note: assay procedure not described here.

Sequence of Beta-2 adrenergic receptor (P07550 whole entry): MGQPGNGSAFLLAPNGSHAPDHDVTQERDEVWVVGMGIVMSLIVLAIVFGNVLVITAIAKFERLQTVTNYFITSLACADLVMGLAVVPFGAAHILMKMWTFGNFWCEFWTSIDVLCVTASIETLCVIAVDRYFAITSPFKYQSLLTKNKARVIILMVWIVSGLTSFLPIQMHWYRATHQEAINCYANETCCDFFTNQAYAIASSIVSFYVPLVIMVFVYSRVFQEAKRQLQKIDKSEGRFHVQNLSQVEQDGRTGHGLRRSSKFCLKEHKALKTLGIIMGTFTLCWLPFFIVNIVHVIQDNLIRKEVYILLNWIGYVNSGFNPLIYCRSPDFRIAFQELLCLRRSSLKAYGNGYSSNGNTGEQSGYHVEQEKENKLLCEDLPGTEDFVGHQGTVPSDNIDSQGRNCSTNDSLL
Sequence of Mu-type opioid receptor (P35372 whole entry): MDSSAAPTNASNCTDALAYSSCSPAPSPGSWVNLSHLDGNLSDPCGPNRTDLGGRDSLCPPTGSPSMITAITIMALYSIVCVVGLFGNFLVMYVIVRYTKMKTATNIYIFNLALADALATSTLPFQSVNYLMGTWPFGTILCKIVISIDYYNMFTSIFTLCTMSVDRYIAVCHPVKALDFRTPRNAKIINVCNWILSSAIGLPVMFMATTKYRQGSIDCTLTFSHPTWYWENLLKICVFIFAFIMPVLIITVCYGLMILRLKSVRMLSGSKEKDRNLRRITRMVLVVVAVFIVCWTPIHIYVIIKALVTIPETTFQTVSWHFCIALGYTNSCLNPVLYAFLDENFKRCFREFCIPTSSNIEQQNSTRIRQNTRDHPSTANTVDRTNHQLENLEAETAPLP
Sequence of Beta-3 adrenergic receptor (P13945 whole entry): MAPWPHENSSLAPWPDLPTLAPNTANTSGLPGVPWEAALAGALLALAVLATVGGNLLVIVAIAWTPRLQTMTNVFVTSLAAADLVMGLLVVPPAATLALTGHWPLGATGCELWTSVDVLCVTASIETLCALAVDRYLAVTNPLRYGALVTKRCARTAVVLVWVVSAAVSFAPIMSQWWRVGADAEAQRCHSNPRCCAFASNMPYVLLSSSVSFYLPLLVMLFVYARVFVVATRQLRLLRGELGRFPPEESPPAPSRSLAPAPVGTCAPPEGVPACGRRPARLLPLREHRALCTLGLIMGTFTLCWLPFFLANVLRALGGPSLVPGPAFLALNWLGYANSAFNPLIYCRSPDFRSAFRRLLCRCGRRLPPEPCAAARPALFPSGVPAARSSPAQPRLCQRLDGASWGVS
Sequence of Cannabinoid receptor 1 (P21554 whole entry): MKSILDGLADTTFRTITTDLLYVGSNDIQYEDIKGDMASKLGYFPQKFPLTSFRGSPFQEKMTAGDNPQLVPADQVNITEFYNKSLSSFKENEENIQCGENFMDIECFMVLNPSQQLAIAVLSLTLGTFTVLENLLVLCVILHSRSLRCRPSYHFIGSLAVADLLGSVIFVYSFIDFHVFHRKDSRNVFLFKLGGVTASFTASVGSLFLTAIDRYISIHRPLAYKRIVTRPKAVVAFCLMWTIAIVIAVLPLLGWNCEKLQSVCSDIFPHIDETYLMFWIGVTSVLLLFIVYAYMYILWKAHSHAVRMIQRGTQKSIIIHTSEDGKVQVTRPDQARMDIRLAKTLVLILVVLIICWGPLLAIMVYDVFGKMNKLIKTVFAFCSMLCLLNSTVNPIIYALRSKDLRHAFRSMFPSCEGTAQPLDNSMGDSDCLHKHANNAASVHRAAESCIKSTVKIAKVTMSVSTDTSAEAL
Sequence of Melanocortin receptor 4 (P32245 whole entry): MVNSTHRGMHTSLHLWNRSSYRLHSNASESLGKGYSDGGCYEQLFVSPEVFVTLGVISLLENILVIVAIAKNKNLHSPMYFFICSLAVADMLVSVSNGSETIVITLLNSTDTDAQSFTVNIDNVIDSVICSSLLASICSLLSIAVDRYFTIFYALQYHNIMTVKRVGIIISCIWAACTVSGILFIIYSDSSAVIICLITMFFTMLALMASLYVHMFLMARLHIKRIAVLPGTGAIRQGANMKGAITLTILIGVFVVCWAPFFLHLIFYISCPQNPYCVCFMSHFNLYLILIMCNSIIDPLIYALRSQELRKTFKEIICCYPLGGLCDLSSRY
T3 sequence (P14867 whole entry): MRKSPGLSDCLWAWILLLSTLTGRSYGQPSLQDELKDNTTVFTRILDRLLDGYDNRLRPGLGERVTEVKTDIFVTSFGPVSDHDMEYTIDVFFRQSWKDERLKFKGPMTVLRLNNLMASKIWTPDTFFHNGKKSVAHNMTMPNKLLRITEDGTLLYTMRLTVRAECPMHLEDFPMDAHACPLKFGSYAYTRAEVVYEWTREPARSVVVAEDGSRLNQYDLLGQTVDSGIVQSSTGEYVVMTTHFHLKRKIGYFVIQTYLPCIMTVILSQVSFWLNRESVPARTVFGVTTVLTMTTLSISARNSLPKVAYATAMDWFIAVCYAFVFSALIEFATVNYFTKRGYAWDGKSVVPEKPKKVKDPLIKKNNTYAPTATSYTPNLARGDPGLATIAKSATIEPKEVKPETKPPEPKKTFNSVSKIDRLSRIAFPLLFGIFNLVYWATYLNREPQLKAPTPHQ
T3 sequence (P47870 whole entry): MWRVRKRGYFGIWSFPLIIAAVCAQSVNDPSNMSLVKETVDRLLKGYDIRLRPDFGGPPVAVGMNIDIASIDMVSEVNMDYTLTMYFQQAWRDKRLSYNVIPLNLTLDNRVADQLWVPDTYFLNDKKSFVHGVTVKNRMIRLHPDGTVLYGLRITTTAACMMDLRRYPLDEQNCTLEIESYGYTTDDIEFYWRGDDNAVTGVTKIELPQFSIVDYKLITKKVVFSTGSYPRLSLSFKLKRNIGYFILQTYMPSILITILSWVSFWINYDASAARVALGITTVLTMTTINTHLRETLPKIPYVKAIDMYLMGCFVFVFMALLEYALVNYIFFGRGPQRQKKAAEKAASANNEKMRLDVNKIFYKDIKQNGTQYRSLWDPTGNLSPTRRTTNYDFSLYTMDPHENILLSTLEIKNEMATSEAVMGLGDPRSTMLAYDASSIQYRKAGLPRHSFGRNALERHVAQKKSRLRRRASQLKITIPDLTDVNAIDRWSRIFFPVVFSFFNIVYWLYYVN
T3 sequence (P18507 whole entry): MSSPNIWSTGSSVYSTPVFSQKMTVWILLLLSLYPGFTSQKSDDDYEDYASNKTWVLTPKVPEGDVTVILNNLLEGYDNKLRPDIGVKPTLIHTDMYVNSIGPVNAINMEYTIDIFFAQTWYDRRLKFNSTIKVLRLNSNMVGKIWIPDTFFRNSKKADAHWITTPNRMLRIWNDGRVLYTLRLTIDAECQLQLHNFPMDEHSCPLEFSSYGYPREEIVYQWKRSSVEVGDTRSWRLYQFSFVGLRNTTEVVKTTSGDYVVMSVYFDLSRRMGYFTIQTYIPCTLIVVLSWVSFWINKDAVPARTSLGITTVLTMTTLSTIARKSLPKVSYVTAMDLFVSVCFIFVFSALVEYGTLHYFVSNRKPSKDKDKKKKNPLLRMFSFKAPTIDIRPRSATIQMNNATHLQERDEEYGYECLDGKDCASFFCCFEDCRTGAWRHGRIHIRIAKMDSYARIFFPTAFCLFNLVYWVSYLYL
T3 sequence (P47869 whole entry): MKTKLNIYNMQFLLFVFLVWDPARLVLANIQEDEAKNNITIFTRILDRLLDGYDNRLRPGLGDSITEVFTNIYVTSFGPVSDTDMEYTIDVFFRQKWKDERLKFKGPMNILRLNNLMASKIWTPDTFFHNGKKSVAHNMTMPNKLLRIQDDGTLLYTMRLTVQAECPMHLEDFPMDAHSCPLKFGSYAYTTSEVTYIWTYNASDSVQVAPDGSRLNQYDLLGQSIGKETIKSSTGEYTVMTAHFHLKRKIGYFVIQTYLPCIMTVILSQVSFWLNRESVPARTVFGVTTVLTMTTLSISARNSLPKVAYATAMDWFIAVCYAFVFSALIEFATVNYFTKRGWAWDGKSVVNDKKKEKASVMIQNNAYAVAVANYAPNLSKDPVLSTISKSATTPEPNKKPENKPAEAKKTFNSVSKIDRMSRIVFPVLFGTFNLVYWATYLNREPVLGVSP

In general, AC50 refers to the concentration giving half of the maximal activity seen. Low readings indicate activity at low concentration, high ones activity only at high concentration. `N#Cc1ccccc1-c1cc(-c2ccccn2)cn(-c2ccccc2)c1=O`: the AC50 (in experiment [1]; on Androgen receptor [2]; at Androgen receptor [3]) was above 30 µM in each case.
With `COc1ccc(/C=C/C(=O)Nc2ccccc2C(=O)O)cc1OC`, the AC50 is 18 µM in experiment [4]; above 30 µM at Androgen receptor [2]; above 30 µM on Androgen receptor [3]; above 30 µM at Cannabinoid receptor 1; above 30 µM on Mu-type opioid receptor.
Turning to `Nc1ccc(C(=O)O)c(O)c1` [AMINOSALICYLIC ACID], the AC50 (in experiment [1]; at Androgen receptor [2]; on Androgen receptor [3]) was above 30 µM throughout.
Take `NS(=O)(=O)c1cc2c(cc1C(F)(F)F)NC(Cc1ccccc1)NS2(=O)=O` (centres undefined) [BENDROFLUMETHIAZIDE]: the AC50 is above 10 µM in experiment [4]; above 10 µM on Androgen receptor [5]; above 10 µM at Cannabinoid receptor 1; above 10 µM on Melanocortin receptor 4; above 30 µM on Mu-type opioid receptor.
Regarding `O=C(CCCN1CCC(n2c(O)nc3ccccc32)CC1)c1ccc(F)cc1` [BENPERIDOL], the AC50 in experiment [1] was above 30 µM; on Androgen receptor [2], 7.1 µM; in [6], 20 µM; in experiment [7], above 30 µM; in [8], 0.0035 µM.
For the compound `CCCCC1(CC)C(=O)NC(=O)NC1=O` [BUTETHAL], the AC50 (in experiment [1]; at Androgen receptor [2]; at Androgen receptor [3]; in [6]; in experiment [7]) was above 30 µM throughout.
For `CC(C)(C)NCC(O)c1cc(Cl)c(N)c(Cl)c1` (centres undefined) [CLENBUTEROL], the AC50 was 13 µM in experiment [4]; above 30 µM on Androgen receptor [2]; above 30 µM at Androgen receptor [3]; above 30 µM on Androgen receptor [5]; above 30 µM at Cannabinoid receptor 1; above 30 µM in experiment [6]. Moreover, the AC50 on Melanocortin receptor 4 is above 30 µM.
As for `CCC(C)(Oc1ccc(C2(c3ccc(OC(C)(CC)C(=O)O)cc3)CCCCC2)cc1)C(=O)O` (centres undefined) [CLINOFIBRATE], the AC50 on Androgen receptor [2] and on Androgen receptor [3] was above 30 µM in each case.
Consider `N[C@H](Cc1cc(I)c(Oc2cc(I)c(O)c(I)c2)c(I)c1)C(=O)O` [DEXTROTHYROXINE], for which the AC50 in [4] is above 10 µM; in [1], above 30 µM; in experiment [9], above 30 µM; on Cannabinoid receptor 1, above 10 µM; on Melanocortin receptor 4 it was above 30 µM; in experiment [10] it was above 10 µM. The AC50 was above 30 µM on Mu-type opioid receptor and above 10 µM in [8].
As for `CCCCC[C@H](O)/C=C/[C@H]1[C@H](O)CC(=O)[C@@H]1C/C=C\CCCC(=O)O` [DINOPROSTONE], the concentration at half-maximal activity (AC50) at Androgen receptor [2] is above 30 µM; on Androgen receptor [3], 23 µM.
On to `COC(=O)N[C@@H](C)CNc1nccc(-c2cn(C(C)C)nc2-c2cc(Cl)cc(NS(C)(=O)=O)c2F)n1` [ENCORAFENIB], for which the AC50 (in experiment [4]; on Androgen receptor [2]; on Androgen receptor [3]; on Cannabinoid receptor 1; at Melanocortin receptor 4) was above 30 µM in each case.
Take `Clc1ccc2c(c1)C(c1ccccc1)=NCc1nncn1-2` [ESTAZOLAM]: the AC50 in experiment [4] is above 10 µM; on Androgen receptor [5], above 30 µM; at Melanocortin receptor 4, above 30 µM; at Mu-type opioid receptor it was above 30 µM.
Turning to `CC(=O)OCC(CCn1cnc2cnc(N)nc21)COC(C)=O` [FAMCICLOVIR], the AC50 was 11.6 µM in experiment [4]; above 30 µM in [1]; above 30 µM in [9]; above 30 µM at Androgen receptor [5]; above 10 µM at Cannabinoid receptor 1; above 30 µM on Melanocortin receptor 4. Moreover, the AC50 in experiment [10] is above 10 µM; on Mu-type opioid receptor, above 30 µM.
Consider `Nc1nc(F)nc2c1ncn2[C@@H]1O[C@H](COP(=O)(O)O)[C@@H](O)[C@@H]1O` [FLUDARABINE PHOSPHATE], for which the AC50 on Androgen receptor [5], on Cannabinoid receptor 1 and at Melanocortin receptor 4 was above 30 µM each time.
In the case of `CCCCCCOC(=O)CCC(=O)CN` [HEXAMINOLEVULINATE], the AC50 (in experiment [1]; at Androgen receptor [2]; on Androgen receptor [3]) was above 30 µM throughout.
Regarding `COC1=C(OC)C(=O)C(CCCCCCCCCCO)=C(C)C1=O` [IDEBENONE], the AC50 in experiment [4] is above 10 µM; in experiment [1] it was above 30 µM; in [9], above 30 µM; at Androgen receptor [5], above 30 µM; at Cannabinoid receptor 1, above 10 µM; on Melanocortin receptor 4 it was above 30 µM. For the same compound, the AC50 (in experiment [10]; on Mu-type opioid receptor) was above 10 µM in each case.
For `Nc1nc2c(c(=O)[nH]1)N(C=O)C(CNc1ccc(C(=O)N[C@@H](CCC(=O)O)C(=O)O)cc1)CN2` (some centres undefined) [LEUCOVORIN], the AC50 (in experiment [1]; at Androgen receptor [2]; on Androgen receptor [3]; in [6]) was above 30 µM throughout.
As for `CC(C)OC(=O)C(C(=O)OC(C)C)=C1SC=CS1` [MALOTILATE], the AC50 at Androgen receptor [2] and on Androgen receptor [3] was above 30 µM in each case.
On to `CC(CCc1ccccc1)NC(C)C(O)c1ccc(O)cc1` (centres undefined) [NYLIDRIN], for which the AC50 is 0.082 µM in experiment [1]; above 30 µM in experiment [9]; above 10 µM at Cannabinoid receptor 1; above 30 µM on Melanocortin receptor 4; 9.39 µM in experiment [10]; 9.9 µM at Mu-type opioid receptor. Also, the activity in [8] was half-maximal at 2.5 µM (AC50).
Regarding `CC1(C)C(C=C(Cl)Cl)C1C(=O)OCc1cccc(Oc2ccccc2)c1` (centres undefined) [PERMETHRIN], the AC50 is above 10 µM in [4]; above 30 µM at Androgen receptor [5]; 18.2 µM on Cannabinoid receptor 1; above 10 µM at Melanocortin receptor 4; above 10 µM in [10]; above 30 µM at Mu-type opioid receptor.
Take `CC(=O)c1ccc2c(c1)N(CCCN1CCC(CCO)CC1)c1ccccc1S2` [PIPERACETAZINE]: the AC50 stood at 0.18 µM in [4] and 0.012 µM in [8].
With `NC(=O)CCC/N=C(\c1ccc(Cl)cc1)c1cc(F)ccc1O` [PROGABIDE], the AC50 in experiment [4] is above 10 µM; in experiment [1] it was above 30 µM; on Androgen receptor [5] it was above 10 µM; at Cannabinoid receptor 1, above 10 µM; on Melanocortin receptor 4, above 10 µM; on Mu-type opioid receptor it was above 30 µM. The compound also came in with an AC50 in experiment [8] above 10 µM.
Take `CCN(CC)CC(=O)Oc1ccc(NC(C)=O)cc1` [PROPACETAMOL]: the AC50 at Androgen receptor [2] and at Androgen receptor [3] was above 30 µM each time.
`Cc1cc2nc3c(=O)[nH]c(=O)nc-3n(C[C@H](O)[C@H](O)[C@H](O)COP(=O)(O)O)c2cc1C` [RIBOFLAVIN 5'-PHOSPHATE]: the AC50 is 2.9 µM in experiment [1], above 30 µM at Androgen receptor [2] and above 3 µM on Androgen receptor [3].
